These results are taken from patent publication US8247211B2, “Glycopeptide antibiotics” (American Cyanamid Company, priority 2001, dated 2012).

The structures appear in SMILES notation. ≈ marks a conversion by molar mass, not a printed value.

Holding throughout (test): In vitro antibacterial evaluation: minimum inhibitory concentration (MIC), broth dilution method
Format in all cases: cell-based

One test relates to Staphylococcus sp. Particulars: Coagulase Negative Staphylococcus (GC 6257); 18 hours at 35° C. As to the method: (§1) The minimum inhibitory concentration (MIC), the lowest concentration of the antibiotic which inhibits growth of the test organism, is determined by the broth dilution method using Muller-Hinton II […] (Baltimore Biological Laboratories) following the recommendations of the National Committee for Clinical Laboratory Standards [Methods for dilution antimicrobial susceptibility tests for bacteria that grow aerobically, approved standard M7-A2, National Committee for Clinical Laboratory Standards, Villanova, Pa].
(§2) An inoculum level of 5×10^5 CFU/mL, and a range of antibiotic concentrations (64-0.06 μg/mL) is used. […] The test organisms include a spectrum of Gram-positive bacteria comprised of Staphylococcus sp., Streptococcus sp. and Enterococcus sp. These organisms include recent clinical isolates that are resistant to methicillin, penicillin and/or vancomycin.

A further test concerns Streptococcus sp. Particulars: 18 hours at 35° C. The procedure: as §1, §2
Another test has as its system Enterococcus sp. The note with it: broth dilution, 18 hours at 35° C. As to the method:
as §1, §2
For orientation: In broth dilution the organism is exposed to a series of concentrations in liquid medium.

Where [1] appears, read: broth dilution, inoculum 5×10^5 CFU/mL.
[2] abbreviates: Streptococcus agalactiae (GC 4564), broth dilution.
Setting [3] is: Streptococcus pneumoniae (ATCC 6301), broth dilution.
[4] abbreviates: Streptococcus pneumoniae (GC 1894), broth dilution.
Where [5] appears, read: Streptococcus pneumoniae (GC 4565), broth dilution.
Setting [6] is: Streptococcus pyogenes (GC 4563), broth dilution.

Consider `CC(c1ccccc1)C1NC(=O)CNC(=O)C(CO)NC(=O)C(C(O)C2CNC(=N)N2C2OC(CO)C(O)C(O)C2O)NC(=O)C(C(O)C2CNC(=N)N2)NC(=O)C(Cc2ccc(OC3OC(CO)C(OC4OC(CO)C(O)C(O)C4OCc4ccc(OCc5ccccc5)cc4)C(O)C3O)cc2)NC1=O` (stereo not drawn) [Example 231b, Cyclo[glycyl-β-methylphenylalanyl-O-[4-O-[2-O-[4-(phenylmethoxy)benzyl]hexopyranosyl]-hexopyranosyl]tyrosyl-3-(2-iminoimidazolidin-4-yl)seryl-3-(3-hexopyranosyl-2-iminoimidazolidin-4-yl)serylseryl]], for which, in the test on Staphylococcus sp., the “MIC Coagulase Negative Staphylococcus (GC 6257)” value lay within 12 to 32 µg/mL. For the same molecule, the “MIC Streptococcus agalactiae (GC 4564)” value with Streptococcus sp. (Streptococcus agalactiae (GC 4564)) and against Streptococcus sp. (setting [1]) was 1 to 8 µg/mL each time. In addition, the “MIC Streptococcus pneumoniae (GC 1894)” value with Streptococcus sp. (Streptococcus pneumoniae (GC 1894)) and against Streptococcus sp. (setting [1]) was under 0.06 to 2 µg/mL in each case. Moreover, the “MIC Streptococcus pneumoniae (GC 4565)” value against Streptococcus sp. (Streptococcus pneumoniae (GC 4565)) and against Streptococcus sp. (setting [1]) was 0.5 to 8 µg/mL each time. The “MIC Streptococcus pyogenes (GC 4563)” value against Streptococcus sp. (Streptococcus pyogenes (GC 4563)) and in the test with Streptococcus sp. (setting [1]) was 1 to 8 µg/mL each time.
Regarding `CC(c1ccccc1)C1NC(=O)CNC(=O)C(CO)NC(=O)C(C(O)C2CNC(=N)N2C2OC(CO)C(O)C(O)C2O)NC(=O)C(C(O)C2CNC(=N)N2)NC(=O)C(Cc2ccc3oc(=O)[nH]c3c2)NC1=O` (stereo not drawn) [Example 22, Cyclo[3-(2,3-dihydro-2-oxo-1,3-benzoxazol-5-yl)alanyl-3-(2-iminoimidazolidin-4-yl)seryl-3-(3-hexopyranosyl-2-iminoimidazolidin-4-yl)serylserylglycyl-β-methylphenylalanyl]], the “MIC Enterococcus faecium (GC 4557)” value in the test on Enterococcus sp. (Enterococcus faecium (GC 4557)) and against Enterococcus sp. was 64 µg/mL (≈ 63.2 µM) throughout. Also, the “MIC Streptococcus agalactiae (GC 4564)” value against Streptococcus sp. (setting [2]) and in the test on Streptococcus sp. (broth dilution) was 32 µg/mL (≈ 31.6 µM) in each case. The “MIC Streptococcus pneumoniae (ATCC 6301)” value in the test on Streptococcus sp. (setting [3]) and against Streptococcus sp. (broth dilution) was 8 µg/mL (≈ 7.91 µM) each time. Further, the “MIC Streptococcus pneumoniae (GC 1894)” value with Streptococcus sp. (setting [4]) and in the test on Streptococcus sp. (broth dilution) was 8 µg/mL (≈ 7.91 µM) throughout. Further, the “MIC Streptococcus pneumoniae (GC 4565)” value against Streptococcus sp. (setting [5]) and with Streptococcus sp. (broth dilution) was 8 µg/mL (≈ 7.91 µM) each time. In addition, the “MIC Streptococcus pyogenes (GC 4563)” value against Streptococcus sp. (setting [6]) and against Streptococcus sp. (broth dilution) was 32 µg/mL (≈ 31.6 µM) each time.
As for `CC(C1CCCCC1)C1NC(=O)CNC(=O)C(CO)NC(=O)C(C(O)C2CNC(=N)N2C2OC(CO)C(O)C(O)C2O)NC(=O)C(C(O)C2CNC(=N)N2)NC(=O)C(CC2CCC(OC3OC(CO)C(OC4OC(CO)C(O)C(O)C4O)C(O)C3O)CC2)NC1=O` (stereo not shown) [Example 53a, Cyclo[3-[4-[(4-O-hexopyranosylhexopyranosyl)oxy]cyclohexyl]alanyl-3-(2-iminoimidazolidin-4-yl)seryl-3-(3-hexopyranosyl-2-iminoimidazolidin-4-yl)serylserylglycyl-3-cyclohexyl-2-aminobutanoyl]], the “MIC Streptococcus agalactiae (GC 4564)” value in the test on Streptococcus sp. (setting [2]) and with Streptococcus sp. (broth dilution) was 64 µg/mL (≈ 49 µM) throughout. Further, the “MIC Streptococcus pneumoniae (ATCC 6301)” value in the test on Streptococcus sp. (setting [3]) and with Streptococcus sp. (broth dilution) was 64 µg/mL (≈ 49 µM) in each case. Also, the “MIC Streptococcus pneumoniae (GC 1894)” value against Streptococcus sp. (setting [4]) and against Streptococcus sp. (broth dilution) was 32 µg/mL (≈ 24.5 µM) in each case. In addition, the “MIC Streptococcus pneumoniae (GC 4565)” value against Streptococcus sp. (setting [5]) and in the test on Streptococcus sp. (broth dilution) was 64 µg/mL (≈ 49 µM) throughout. For the same molecule, the “MIC Streptococcus pyogenes (GC 4563)” value against Streptococcus sp. (setting [6]) and against Streptococcus sp. (broth dilution) was 64 µg/mL (≈ 49 µM) in each case.
